Test results reported in US10173971B2, “Picolinamides with fungicidal activity” (DOW AGROSCIENCES LLC, priority 2014, dated 2019).
Like-named read-outs stand apart in the source and are kept apart here.

Experiments:
Zymoseptoria tritici = experiment: Fungicidal activity: leaf blotch of wheat (SEPTTR), wheat seedlings, booth sprayer to run-off or track spray; type: in vivo; details: for pest or weed control at 121.5 g/ha: Low-Volume Cereal Activity at 121.5 g/H; for pest or weed control at 100 ppm: High-Volume Cereal Activity at 100 ppm
Description: All fungicides were evaluated using the aforementioned method for their activity vs. all target diseases. Wheat leaf blotch and brown rust activity were also evaluated using track spray applications, in which case the fungicides were formulated as EC formulations, containing 0.1% Trycol 5941 in the spray solutions. Wheat plants (variety Yuma) were grown from seed in a greenhouse in 50% mineral soil/50% soil-less Metro mix until the first leaf was fully emerged, with 7-10 seedlings per pot. These plants were inoculated with an aqueous spore suspension of Zymoseptoria tritici either prior to or after fungicide treatments. After inoculation the plants were kept in 100% relative humidity (one day in a dark dew chamber followed by two to three days in a lighted dew chamber at 20° C.) to permit spores to germinate and infect the leaf. The plants were then transferred to a greenhouse set at 20° C. for disease to develop. When disease symptoms were fully expressed on the 1st leaves of untreated plants, infection levels were assessed on a scale of 0 to 100 percent disease severity. Percent disease control was calculated using the ratio of disease severity on treated plants relative to untreated plants.

Puccinia triticina = experiment: Fungicidal activity: wheat brown rust (PUCCRT), wheat seedlings, booth sprayer to run-off or track spray; type: in vivo; details: for pest or weed control at 121.5 g/ha: Low-Volume Cereal Activity at 121.5 g/H; for pest or weed control at 100 ppm: High-Volume Cereal Activity at 100 ppm
Description: All fungicides were evaluated using the aforementioned method for their activity vs. all target diseases. Wheat leaf blotch and brown rust activity were also evaluated using track spray applications, in which case the fungicides were formulated as EC formulations, containing 0.1% Trycol 5941 in the spray solutions. Wheat plants (variety Yuma) were grown from seed in a greenhouse in 50% mineral soil/50% soil-less Metro mix until the first leaf was fully emerged, with 7-10 seedlings per pot. These plants were inoculated with an aqueous spore suspension of Puccinia triticina either prior to or after fungicide treatments. […] The plants were then transferred to a greenhouse set at 24° C. for disease to develop. Fungicide formulation, application and disease assessment followed the procedures as described in the Example A.

[1] = 24 h, 1 Day Protectant, read-out: SEPTTR 1DP
[2] = 72 h, 3 Day Curative, read-out: SEPTTR 3DC
[3] = 24 h, 1 Day Protectant, read-out: PUCCRT 1DP
[4] = 72 h, 3 Day Curative, read-out: PUCCRT 3DC
[5] = 3DC (Day Curative), read-out: SEPTTR 3DC
[6] = 3DC (Day Curative), read-out: PUCCRT 3DC

Row | SMILES | pest or weed control at 121.5 g/ha (Zymoseptoria tritici; [1]) [%] | pest or weed control at 121.5 g/ha (Zymoseptoria tritici; [2]) [%] | pest or weed control at 121.5 g/ha (Puccinia triticina; [3]) [%] | pest or weed control at 121.5 g/ha (Puccinia triticina; [4]) [%] | pest or weed control at 100 ppm (Zymoseptoria tritici; [1]) [%] | pest or weed control at 100 ppm (Zymoseptoria tritici; [5]) [%] | pest or weed control at 100 ppm (Puccinia triticina; [3]) [%] | pest or weed control at 100 ppm (Puccinia triticina; [6]) [%]
1 | COc1ccnc(C(=O)N[C@@H](C)C(=O)O[C@@H](C)[C@H](CCC(C)C)c2ccccc2)c1OCOC(C)=O [compound 213] | 80 to 100 | 80 to 100 | 80 to 100 | 80 to 100 |  |  |  | 
2 | COc1ccnc(C(=O)N[C@@H](C)C(=O)O[C@@H](C)[C@H](Cc2ccccc2)C(C)C)c1OC(C)=O [compound 205] | 80 to 100 | 80 to 100 | 80 to 100 | 80 to 100 |  |  |  | 
3 | CCCO[C@H](CC)[C@@H](Cc1ccccc1)[C@H](C)OC(=O)[C@H](C)NC(=O)c1nccc(OC)c1O [compound 92] |  |  |  |  | 80 to 100 | 80 to 100 | 80 to 100 | 80 to 100
4 | COc1ccnc(C(=O)N[C@@H](C)C(=O)O[C@@H](C)[C@H](Cc2ccc(Cl)c(Cl)c2)c2ccccc2)c1OC(C)=O [compound 216] | 80 to 100 | 0 to 80 | 0 to 80 | 0 to 80 |  |  |  | 
5 | COc1ccnc(C(=O)N[C@@H](C)C(=O)O[C@@H](C)[C@H](Cc2ccccc2)C(C)C)c1OCOC(C)=O [compound 206] | 80 to 100 | 80 to 100 | 80 to 100 | 80 to 100 |  |  |  | 
6 | CCOCC(=O)OCOc1c(OC)ccnc1C(=O)N[C@@H](C)C(=O)O[C@@H](C)[C@H](Cc1ccc(F)cc1)C(C)(C)OCc1ccccc1 [compound 235] | 80 to 100 | 0 to 80 | 80 to 100 | 0 to 80 |  |  |  | 
7 | CC[C@H](NC(=O)c1nccc(OC)c1OCOC(C)=O)C(=O)O[C@@H](C)C(Cc1cccc(OC)c1)Cc1cccc(OC)c1 [compound 275] | 0 to 80 |  | 80 to 100 | 0 to 80 |  |  |  | 
8 | CC[C@H](NC(=O)c1nccc(OC)c1OCOC(C)=O)C(=O)O[C@@H](C)C(Cc1ccc(OC)cc1)Cc1ccc(OC)cc1 [compound 277] | 80 to 100 |  | 80 to 100 | 0 to 80 |  |  |  | 
9 | CCCOC[C@@H](Cc1ccccc1)[C@H](C)OC(=O)[C@H](C)NC(=O)c1nccc(OC)c1O [compound 93] |  |  |  |  | 0 to 80 | 80 to 100 | 80 to 100 | 80 to 100
10 | CCCOC[C@@H](Cc1ccccc1)[C@H](C)OC(=O)CNC(=O)c1nccc(OC)c1O [compound 104] |  |  |  |  |  | 0 to 80 |  | 0 to 80
11 | COc1ccnc(C(=O)N[C@@H](C)C(=O)O[C@@H](C)[C@@H](COc2ccc(Cl)cc2Cl)Cc2ccccc2)c1OCOC(C)=O [compound 209] | 0 to 80 | 0 to 80 | 0 to 80 |  |  |  |  | 
12 | CC[C@H](Cc1ccccc1)[C@@H](Cc1ccc(F)cc1)[C@H](C)OC(=O)[C@H](C)NC(=O)c1nccc(OC)c1O [compound 103] |  |  |  |  | 80 to 100 | 0 to 80 | 80 to 100 | 0 to 80
13 | CCCC[C@H](c1ccccc1)[C@H](C)OC(=O)[C@H](C)NC(=O)c1nccc(OC)c1OCOC(C)=O [compound 199] | 80 to 100 | 80 to 100 | 80 to 100 | 80 to 100 |  |  |  | 
14 | COc1ccnc(C(=O)N[C@@H](C)C(=O)O[C@@H](C)[C@@H](COCCC(C)C)Cc2ccccc2)c1OC(C)=O [compound 248] |  | 0 to 80 | 80 to 100 | 0 to 80 |  |  |  | 
15 | COc1ccnc(C(=O)N[C@@H](C)C(=O)OC(C)C(Cc2ccc(F)cc2)Cc2ccc(F)cc2)c1OC(C)=O (stereo partly shown) [compound 264] | 0 to 80 |  | 0 to 80 |  |  |  |  | 
16 | CCCOC[C@@H](Cc1ccccc1)[C@H](C)OC(=O)CNC(=O)c1nccc(OC)c1OCOC(C)=O [compound 175] |  | 0 to 80 | 80 to 100 | 80 to 100 |  |  |  | 

Row | SMILES | pest or weed control at 121.5 g/ha (Zymoseptoria tritici; [1]) [%] | pest or weed control at 121.5 g/ha (Zymoseptoria tritici; [2]) [%] | pest or weed control at 121.5 g/ha (Puccinia triticina; [3]) [%] | pest or weed control at 121.5 g/ha (Puccinia triticina; [4]) [%] | pest or weed control at 100 ppm (Zymoseptoria tritici; [1]) [%] | pest or weed control at 100 ppm (Zymoseptoria tritici; [5]) [%] | pest or weed control at 100 ppm (Puccinia triticina; [3]) [%] | pest or weed control at 100 ppm (Puccinia triticina; [6]) [%]
17 | COc1ccnc(C(=O)N[C@@H](C)C(=O)O[C@@H](C)[C@H](CCC(C)C)c2ccccc2)c1O [compound 123] |  |  |  |  |  | 80 to 100 |  | 0 to 80
18 | COc1ccnc(C(=O)N[C@@H](C)C(=O)O[C@@H](C)[C@H](Cc2ccccc2)c2ccccc2)c1OC(C)=O [compound 196] | 80 to 100 | 80 to 100 | 80 to 100 | 0 to 80 |  |  |  | 
19 | COc1ccnc(C(=O)N[C@@H](C)C(=O)O[C@@H](C)[C@H](Cc2ccc3ccccc3c2)c2ccccc2)c1OCOC(=O)C(C)C [compound 226] | 0 to 80 | 0 to 80 | 0 to 80 |  |  |  |  | 
20 | CCCOC(C)(C)[C@@H](Cc1ccc(OC)cc1)[C@H](C)OC(=O)[C@H](C)NC(=O)c1nccc(OC)c1OCOC(C)=O [compound 257] |  | 0 to 80 | 80 to 100 |  |  |  |  | 
21 | COC(=O)[C@@H](Cc1ccccc1)[C@H](C)OC(=O)[C@H](C)NC(=O)c1nccc(OC)c1O [compound 114] |  |  |  |  |  | 0 to 80 | 0 to 80 | 0 to 80
22 | CCCC[C@@H]([C@H](C)OC(=O)[C@H](C)NC(=O)c1nccc(OC)c1OC(=O)O)[C@@H](CC)Oc1ccccc1 [compound 190] | 80 to 100 | 80 to 100 | 80 to 100 | 80 to 100 |  |  |  | 
23 | CC[C@H](Cc1ccccc1)[C@@H](Cc1ccc(F)cc1)[C@H](C)OC(=O)[C@H](C)NC(=O)c1nccc(OC)c1OCOC(C)=O [compound 174] | 80 to 100 | 0 to 80 | 80 to 100 | 0 to 80 |  |  |  | 
24 | CCCOC[C@@H](Cc1ccccc1)[C@H](C)OC(=O)C(COC)NC(=O)c1nccc(OC)c1O (stereo partly shown) [compound 106] |  |  |  |  |  | 0 to 80 | 0 to 80 | 0 to 80
25 | COc1ccnc(C(=O)N[C@H](C(=O)OC(C)C(Cc2ccccc2)Cc2ccccc2)C(C)C)c1OC(C)=O (stereo partly shown) [compound 261] | 0 to 80 | 0 to 80 | 80 to 100 | 0 to 80 |  |  |  | 
26 | COc1ccnc(C(=O)N[C@@H](C)C(=O)OC(C)C(Cc2cccc(F)c2)Cc2cccc(F)c2)c1OCOC(C)=O (stereo partly shown) [compound 267] | 0 to 80 | 0 to 80 | 0 to 80 |  |  |  |  | 
27 | CC[C@H](Cc1ccc(C(F)(F)F)cc1)[C@@H](Cc1ccc(F)cc1)[C@H](C)OC(=O)[C@H](C)NC(=O)c1nccc(OC)c1O [compound 284] |  |  |  |  | 0 to 80 |  | 80 to 100 | 80 to 100
28 | CCCC[C@@H]([C@H](C)OC(=O)[C@H](C)NC(=O)c1nccc(OC)c1OCOC(C)=O)[C@H](CC)Oc1ccccc1 [compound 188] | 80 to 100 | 80 to 100 | 80 to 100 | 80 to 100 |  |  |  | 
29 | COc1ccnc(C(=O)N[C@@H](C)C(=O)O[C@@H](C)[C@@H](COCCC(C)C)Cc2ccccc2)c1O [compound 141] |  |  |  |  | 80 to 100 | 0 to 80 | 0 to 80 | 0 to 80
30 | COc1ccnc(C(=O)N[C@@H](C)C(=O)O[C@@H](C)[C@@H](COCCC(C)C)Cc2ccc(F)cc2)c1OCOC(C)=O [compound 251] | 0 to 80 | 80 to 100 | 80 to 100 | 0 to 80 |  |  |  | 
31 | COc1ccnc(C(=O)N[C@@H](C)C(=O)O[C@@H](C)[C@@H](COCCC(C)C)Cc2ccc(F)cc2)c1O [compound 140] |  |  |  |  | 0 to 80 | 0 to 80 |  | 0 to 80
32 | COc1ccnc(C(=O)N[C@@H](C)C(=O)O[C@@H](C)[C@H](Cc2ccc(Cl)c(Cl)c2)c2ccccc2)c1OCOC(C)=O [compound 218] | 80 to 100 | 0 to 80 | 0 to 80 | 0 to 80 |  |  |  | 
